Reference: ChEMBL document CHEMBL1201862, “PubChem BioAssay data set” (2004)
Active and inactive are the calls of the source.

Columns and labels:
[1] = target: T1, Neuropeptides B/W receptor type 1 (Homo sapiens, UniProt P48145); test: Fluorescence-based dose response cell-based high throughput screening assay to identify antagonists of the G-protein coupled receptor 7 (GPR7). [Related pubchem assays: 1952 (Screening assay (GPR7 antagonists).), 1880 (Summary AID.)]; assay type: functional
T1 sequence (P48145 whole entry): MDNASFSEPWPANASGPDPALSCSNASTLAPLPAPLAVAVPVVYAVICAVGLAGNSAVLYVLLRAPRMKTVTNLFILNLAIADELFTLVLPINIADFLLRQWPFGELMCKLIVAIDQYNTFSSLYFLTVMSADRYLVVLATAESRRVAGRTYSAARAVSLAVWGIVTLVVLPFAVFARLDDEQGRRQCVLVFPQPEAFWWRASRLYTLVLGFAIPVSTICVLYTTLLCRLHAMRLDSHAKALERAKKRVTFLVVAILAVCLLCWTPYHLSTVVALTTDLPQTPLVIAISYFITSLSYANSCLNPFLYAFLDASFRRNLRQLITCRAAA

[2] = target: Melanin-concentrating hormone receptor 1 (Homo sapiens, UniProt Q99705); test: Fluorescence-based counterscreen for antagonists of the G-protein coupled receptor 7 (GPR7): cell-based high throughput dose response assay to identify antagonists of the melanin-concentrating hormone receptor 1 (MCHR1).; assay type: functional
[3] = inhibitors of intracellular T. cruzi replication, confirmation, NIH3T3 host cells, beta-gal luminescence (AID 2044); assay type: functional, cell-based;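 further: intracellular parasites grown in NIH/3T3 mouse fibroblasts as host cells; luminescent beta-galactosidase reporter signal from transgenic T. cruzi replicating inside host cells; inhibitors lower the luminescence signal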
[4] = cytotoxicity toward NIH3T3 fibroblasts, dose response, counter-screen, cell-based, ATP luminescence, mouse fibroblasts (AID 2010); assay type: functional;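 further: cells exposed to compound for about 90 hours before reading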
[5] = A cytotoxicity screen of small molecule inhibitors of the PhoP region in Salmonella typhi identified in the primary screen. [Related pubchem assays: 1850, 1864, 1985 ]; assay type: functional
[6] = target: Peroxisome proliferator-activated receptor gamma/Nuclear receptor coactivator 1 (Homo sapiens, UniProt P37231); test: (§1) TR-FRET dose response biochemical High Throughput Screening assay for agonists of the steroid receptor coactivator 1 (SRC-1) recruitment by the peroxisome proliferator-activated receptor gamma (PPAR gamma): non-selective agonists. [Related pubchem assays (depositor defined):AID1300, AID1808, AID504735, AID631]; assay type: protein assay
[7] = target: Peroxisome proliferator-activated receptor gamma/Nuclear receptor coactivator 3 (Homo sapiens, UniProt P37231); test: as §1, with “3 (SRC-3)” for “1 (SRC-1)”, “assays: 1301 (Confirmation screen.), 1048 (Primary screen.)]” for “assays (depositor defined):AID1300, AID1808, AID504735, AID631]”; assay type: functional
[8] = target: Peroxisome proliferator-activated receptor gamma/Nuclear receptor coactivator 2 (Homo sapiens, UniProt P37231); test: TR-FRET dose response biochemical High Throughput Screening assay for agonists of the steroid receptor coactivator 2 (SRC-2) recruitment by the peroxisome proliferator-activated receptor gamma (PPAR gamma): non-selective agonists. [Related pubchem assays: 1297, 1032 ]; assay type: functional
[9] = cytotoxicity in HEK-293T cells, dose response, cytotoxicity control for BCR NF-kB inhibitor project, luminescence, B-cell screen hits (AID 489021); assay type: functional, cell-based;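 further: HEK-293T cells carrying an NF-kB luciferase reporter; cells exposed to compound for about 14 hours before viability readout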
[10] = target: Glyceraldehyde-3-phosphate dehydrogenase (Homo sapiens, UniProt P04406)
[11] = target: T2, Alkaline phosphatase, tissue-nonspecific isozyme (Homo sapiens, UniProt P05186); test: human TNAP enzyme inhibitors, SAR follow-up, biochemical, luminescent, dose response (AID 1056)
T2 sequence (P05186 whole entry): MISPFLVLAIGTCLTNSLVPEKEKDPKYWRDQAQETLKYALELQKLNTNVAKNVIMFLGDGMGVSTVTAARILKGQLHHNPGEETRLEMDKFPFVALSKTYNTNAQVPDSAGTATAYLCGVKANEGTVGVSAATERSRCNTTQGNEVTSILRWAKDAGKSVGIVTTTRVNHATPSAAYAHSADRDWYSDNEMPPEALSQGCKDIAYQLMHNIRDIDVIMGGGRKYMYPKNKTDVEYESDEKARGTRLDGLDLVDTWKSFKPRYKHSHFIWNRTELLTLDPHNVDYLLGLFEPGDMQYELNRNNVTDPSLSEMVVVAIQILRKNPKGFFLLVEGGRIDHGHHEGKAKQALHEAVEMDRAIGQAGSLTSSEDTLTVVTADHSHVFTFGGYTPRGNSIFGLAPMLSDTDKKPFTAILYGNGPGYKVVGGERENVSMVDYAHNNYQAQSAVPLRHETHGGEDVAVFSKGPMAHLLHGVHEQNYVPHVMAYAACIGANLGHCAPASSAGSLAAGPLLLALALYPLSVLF

Aminopeptidase N = target: T3, Aminopeptidase N (Plasmodium falciparum FcB1/Columbia, UniProt O96935); test: P. falciparum M1AAP inhibitors, biochemical, fluorogenic H-Leu-NHMec substrate, 1536-well (AID 1445); design: species or system Plasmodium falciparum 3D7, 3D7
T3 sequence (O96935 whole entry): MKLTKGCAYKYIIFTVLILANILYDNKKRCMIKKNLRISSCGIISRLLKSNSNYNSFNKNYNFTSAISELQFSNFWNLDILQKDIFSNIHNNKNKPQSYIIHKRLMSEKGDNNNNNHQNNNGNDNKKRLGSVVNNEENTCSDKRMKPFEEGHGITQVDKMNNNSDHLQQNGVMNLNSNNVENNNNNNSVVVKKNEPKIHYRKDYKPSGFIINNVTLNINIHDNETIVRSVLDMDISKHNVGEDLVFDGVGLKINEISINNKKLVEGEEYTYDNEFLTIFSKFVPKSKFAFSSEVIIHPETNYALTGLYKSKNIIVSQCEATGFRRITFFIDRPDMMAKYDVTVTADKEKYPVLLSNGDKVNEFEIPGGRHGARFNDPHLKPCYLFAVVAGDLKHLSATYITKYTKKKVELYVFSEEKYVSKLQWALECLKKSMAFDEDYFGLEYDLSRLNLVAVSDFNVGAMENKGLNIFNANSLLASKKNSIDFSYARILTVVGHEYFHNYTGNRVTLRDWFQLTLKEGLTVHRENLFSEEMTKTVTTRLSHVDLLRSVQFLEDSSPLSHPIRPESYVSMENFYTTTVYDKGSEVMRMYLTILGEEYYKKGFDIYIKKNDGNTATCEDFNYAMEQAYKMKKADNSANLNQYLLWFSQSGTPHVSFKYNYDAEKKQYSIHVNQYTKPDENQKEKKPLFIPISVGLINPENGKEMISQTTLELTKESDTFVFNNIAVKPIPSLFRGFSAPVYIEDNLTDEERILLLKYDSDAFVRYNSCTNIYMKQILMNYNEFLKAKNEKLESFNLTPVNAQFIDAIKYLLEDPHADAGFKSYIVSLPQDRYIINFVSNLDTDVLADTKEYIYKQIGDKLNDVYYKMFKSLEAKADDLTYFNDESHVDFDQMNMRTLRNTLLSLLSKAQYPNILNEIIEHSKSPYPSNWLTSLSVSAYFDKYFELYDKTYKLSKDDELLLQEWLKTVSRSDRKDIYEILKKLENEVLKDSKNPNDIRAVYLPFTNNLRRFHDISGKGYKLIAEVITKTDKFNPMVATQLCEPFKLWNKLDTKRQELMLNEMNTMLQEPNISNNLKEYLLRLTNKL

[12] = target: DNA dC->dU-editing enzyme APOBEC-3A (Homo sapiens, UniProt P31941); test: Dose Response confirmation of small molecule APOBEC3A DNA Deaminase Inhibitors via a fluorescence-based single-stranded DNA deaminase assay. [Related pubchem assays (depositor defined):AID493011, AID493024]; assay type: functional
[13] = target: DNA dC->dU-editing enzyme APOBEC-3G (Homo sapiens, UniProt Q9HC16); assay type: functional;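 further: Dose-response counterscreen measuring inhibition of APOBEC3G DNA deaminase activity, run while confirming APOBEC3A inhibitors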
[14] = HEp-2 cell cytotoxicity, dose response, cytotoxicity control for RSV inhibitor project, HTS (AID 2410); assay type: functional; settings: human respiratory syncytial virus
[15] = target: T4, Heat shock factor protein 1 (Mus musculus, UniProt P38532); test: HSF1 potentiators in luciferase reporter cells, confirmation, cell-based, NIH3T3, luminescence, dose retest (AID 435004); assay type: functional;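 further: stress induced by proteasome inhibitor MG132 added 30 min after compound; luciferase reporter driven by HSF1 response element in NIH3T3 cells; actives raise luminescence as potentiators of the MG132 stress response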
T4 sequence (P38532 whole entry): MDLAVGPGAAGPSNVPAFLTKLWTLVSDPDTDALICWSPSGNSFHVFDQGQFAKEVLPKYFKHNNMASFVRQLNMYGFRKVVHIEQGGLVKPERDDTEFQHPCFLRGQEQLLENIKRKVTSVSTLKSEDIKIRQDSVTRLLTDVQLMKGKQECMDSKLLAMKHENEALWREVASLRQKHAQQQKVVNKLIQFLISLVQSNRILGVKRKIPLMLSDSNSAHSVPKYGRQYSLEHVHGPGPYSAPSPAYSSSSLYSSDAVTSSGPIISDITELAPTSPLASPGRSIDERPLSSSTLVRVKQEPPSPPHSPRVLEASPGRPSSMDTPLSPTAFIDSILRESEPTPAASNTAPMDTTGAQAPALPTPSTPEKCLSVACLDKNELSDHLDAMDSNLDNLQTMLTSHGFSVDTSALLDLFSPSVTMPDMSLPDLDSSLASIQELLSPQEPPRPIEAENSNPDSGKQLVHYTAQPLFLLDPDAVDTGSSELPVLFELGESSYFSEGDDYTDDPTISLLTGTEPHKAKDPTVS

[16] = target: Luciferin 4-monooxygenase (Photinus pyralis, UniProt P08659); test: Counter Screen for Luciferase-based Assay Positives. [Related pubchem assays: 620, 618, 411 ]
HT-1080 = test: cytotoxicity in HT1080 fibrosarcoma cells, cell-based, fluorescence readout (AID 620); assay type: functional; settings: Homo sapiens
[17] = target: T5, Microphthalmia-associated transcription factor (Homo sapiens, UniProt O75030); test: TRPM1 promoter luciferase signal decrease, dose response, MITF inhibitor project, cell-based, SK-MEL-5, cherry-picked, set 3 (AID 493073); assay type: functional
T5 sequence (O75030 whole entry): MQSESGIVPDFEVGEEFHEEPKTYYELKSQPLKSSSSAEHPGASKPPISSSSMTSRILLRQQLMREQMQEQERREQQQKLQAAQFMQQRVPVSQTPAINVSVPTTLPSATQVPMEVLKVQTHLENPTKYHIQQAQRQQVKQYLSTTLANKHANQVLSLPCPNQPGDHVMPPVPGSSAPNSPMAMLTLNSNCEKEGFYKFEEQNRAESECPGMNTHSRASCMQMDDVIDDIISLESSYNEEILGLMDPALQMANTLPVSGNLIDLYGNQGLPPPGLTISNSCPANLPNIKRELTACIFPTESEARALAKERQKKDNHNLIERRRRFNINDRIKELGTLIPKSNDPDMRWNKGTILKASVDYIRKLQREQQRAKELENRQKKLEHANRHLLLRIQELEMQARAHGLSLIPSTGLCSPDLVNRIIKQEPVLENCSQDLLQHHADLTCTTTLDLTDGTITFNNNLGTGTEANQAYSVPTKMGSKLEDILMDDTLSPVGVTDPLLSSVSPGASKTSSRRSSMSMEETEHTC

cells [18] = assay type: functional, cell-based
cells [19] = assay type: functional, cell-based; remark: listed apart in the source
Nonstructural protein 1 = Nonstructural protein 1 (Influenza A virus, UniProt Q194T2); assay type: functional, Influenza A virus (A/California/07/2009(H1N1))
[20] = microbe, parasite or virus in culture; assay type: functional; settings: Mycobacterium tuberculosis
[21] = Luminescence-based dose response cell-based high throughput screening assay for cytotoxic compounds using the IEC-6 intestinal epithelial cell line. [Related pubchem assays: 1858 (Summary AID.), 1825 (Counterscreen.), 1907 (Confirmation screen.)]; assay type: functional
Vero = test: cells; assay type: functional; settings: Chlorocebus sabaeus

Sequence of Glyceraldehyde-3-phosphate dehydrogenase (P04406 whole entry): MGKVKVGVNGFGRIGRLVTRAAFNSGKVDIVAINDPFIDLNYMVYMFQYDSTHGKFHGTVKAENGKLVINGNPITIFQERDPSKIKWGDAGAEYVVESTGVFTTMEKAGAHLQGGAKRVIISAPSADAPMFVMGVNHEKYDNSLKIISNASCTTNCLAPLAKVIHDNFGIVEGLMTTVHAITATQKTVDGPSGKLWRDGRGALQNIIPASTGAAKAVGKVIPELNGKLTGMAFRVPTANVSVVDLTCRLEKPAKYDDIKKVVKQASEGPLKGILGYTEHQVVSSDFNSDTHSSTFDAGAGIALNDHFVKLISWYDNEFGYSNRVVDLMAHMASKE
Sequence of DNA dC->dU-editing enzyme APOBEC-3A (P31941 whole entry): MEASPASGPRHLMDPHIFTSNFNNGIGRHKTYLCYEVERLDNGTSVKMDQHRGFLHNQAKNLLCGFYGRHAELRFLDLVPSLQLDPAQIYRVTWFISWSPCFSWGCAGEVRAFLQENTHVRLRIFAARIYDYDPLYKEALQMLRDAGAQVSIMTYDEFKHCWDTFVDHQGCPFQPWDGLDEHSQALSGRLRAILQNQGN
Sequence of DNA dC->dU-editing enzyme APOBEC-3G (Q9HC16 whole entry): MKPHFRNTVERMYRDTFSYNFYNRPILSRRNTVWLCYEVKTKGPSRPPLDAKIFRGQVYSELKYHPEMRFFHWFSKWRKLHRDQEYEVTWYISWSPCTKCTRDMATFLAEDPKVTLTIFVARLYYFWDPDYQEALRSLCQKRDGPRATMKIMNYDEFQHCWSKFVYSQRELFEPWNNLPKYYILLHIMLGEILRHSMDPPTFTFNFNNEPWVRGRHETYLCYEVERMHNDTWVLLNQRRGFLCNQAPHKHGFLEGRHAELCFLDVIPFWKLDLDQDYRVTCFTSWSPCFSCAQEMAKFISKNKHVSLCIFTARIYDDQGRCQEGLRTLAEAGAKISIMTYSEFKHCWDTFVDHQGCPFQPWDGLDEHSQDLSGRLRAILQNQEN
Sequence of Melanin-concentrating hormone receptor 1 (Q99705 whole entry): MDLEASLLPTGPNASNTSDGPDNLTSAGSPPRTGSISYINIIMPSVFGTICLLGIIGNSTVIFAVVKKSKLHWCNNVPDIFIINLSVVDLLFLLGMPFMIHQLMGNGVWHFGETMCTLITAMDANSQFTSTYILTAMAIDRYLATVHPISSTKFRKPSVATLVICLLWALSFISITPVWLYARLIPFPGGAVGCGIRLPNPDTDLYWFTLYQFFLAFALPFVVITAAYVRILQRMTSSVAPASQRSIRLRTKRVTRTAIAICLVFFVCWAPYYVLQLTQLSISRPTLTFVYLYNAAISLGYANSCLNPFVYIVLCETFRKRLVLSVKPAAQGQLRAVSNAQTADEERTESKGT
Sequence of Nonstructural protein 1 (Q194T2 whole entry): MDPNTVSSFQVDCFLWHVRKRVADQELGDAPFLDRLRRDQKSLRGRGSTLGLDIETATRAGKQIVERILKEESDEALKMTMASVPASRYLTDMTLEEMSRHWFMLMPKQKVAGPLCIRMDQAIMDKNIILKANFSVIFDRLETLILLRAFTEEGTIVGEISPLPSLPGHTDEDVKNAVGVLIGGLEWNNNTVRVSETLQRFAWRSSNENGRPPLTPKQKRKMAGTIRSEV
Sequence of Luciferin 4-monooxygenase (P08659 whole entry): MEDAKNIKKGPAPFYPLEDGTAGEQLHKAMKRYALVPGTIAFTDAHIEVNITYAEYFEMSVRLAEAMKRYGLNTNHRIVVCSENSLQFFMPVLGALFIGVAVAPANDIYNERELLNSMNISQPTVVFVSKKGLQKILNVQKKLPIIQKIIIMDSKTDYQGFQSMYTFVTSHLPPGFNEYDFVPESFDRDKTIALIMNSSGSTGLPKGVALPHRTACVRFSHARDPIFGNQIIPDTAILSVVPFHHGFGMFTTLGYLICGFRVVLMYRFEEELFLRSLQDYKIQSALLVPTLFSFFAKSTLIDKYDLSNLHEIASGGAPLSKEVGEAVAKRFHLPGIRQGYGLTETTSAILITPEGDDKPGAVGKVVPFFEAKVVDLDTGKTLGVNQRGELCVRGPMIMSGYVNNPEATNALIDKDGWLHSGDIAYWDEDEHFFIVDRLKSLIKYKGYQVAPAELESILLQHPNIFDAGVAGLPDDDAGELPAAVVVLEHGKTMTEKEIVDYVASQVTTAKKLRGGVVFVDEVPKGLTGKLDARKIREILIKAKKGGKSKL
Sequence of Peroxisome proliferator-activated receptor gamma/Nuclear receptor coactivator 3 (P37231 whole entry): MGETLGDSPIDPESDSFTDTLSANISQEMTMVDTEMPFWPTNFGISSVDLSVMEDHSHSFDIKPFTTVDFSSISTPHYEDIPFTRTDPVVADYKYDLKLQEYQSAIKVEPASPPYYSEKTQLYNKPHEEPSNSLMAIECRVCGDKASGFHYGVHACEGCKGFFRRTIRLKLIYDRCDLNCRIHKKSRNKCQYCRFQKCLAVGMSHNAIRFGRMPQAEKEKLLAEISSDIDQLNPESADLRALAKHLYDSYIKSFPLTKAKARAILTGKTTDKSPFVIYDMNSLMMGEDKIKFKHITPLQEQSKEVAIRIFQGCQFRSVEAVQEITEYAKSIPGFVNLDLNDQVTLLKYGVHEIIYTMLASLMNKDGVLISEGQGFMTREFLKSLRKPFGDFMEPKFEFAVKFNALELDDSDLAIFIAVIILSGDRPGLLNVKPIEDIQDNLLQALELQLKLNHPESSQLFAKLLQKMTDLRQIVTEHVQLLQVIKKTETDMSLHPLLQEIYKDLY
Sequence of Peroxisome proliferator-activated receptor gamma/Nuclear receptor coactivator 3 (Q9Y6Q9 whole entry, further chain): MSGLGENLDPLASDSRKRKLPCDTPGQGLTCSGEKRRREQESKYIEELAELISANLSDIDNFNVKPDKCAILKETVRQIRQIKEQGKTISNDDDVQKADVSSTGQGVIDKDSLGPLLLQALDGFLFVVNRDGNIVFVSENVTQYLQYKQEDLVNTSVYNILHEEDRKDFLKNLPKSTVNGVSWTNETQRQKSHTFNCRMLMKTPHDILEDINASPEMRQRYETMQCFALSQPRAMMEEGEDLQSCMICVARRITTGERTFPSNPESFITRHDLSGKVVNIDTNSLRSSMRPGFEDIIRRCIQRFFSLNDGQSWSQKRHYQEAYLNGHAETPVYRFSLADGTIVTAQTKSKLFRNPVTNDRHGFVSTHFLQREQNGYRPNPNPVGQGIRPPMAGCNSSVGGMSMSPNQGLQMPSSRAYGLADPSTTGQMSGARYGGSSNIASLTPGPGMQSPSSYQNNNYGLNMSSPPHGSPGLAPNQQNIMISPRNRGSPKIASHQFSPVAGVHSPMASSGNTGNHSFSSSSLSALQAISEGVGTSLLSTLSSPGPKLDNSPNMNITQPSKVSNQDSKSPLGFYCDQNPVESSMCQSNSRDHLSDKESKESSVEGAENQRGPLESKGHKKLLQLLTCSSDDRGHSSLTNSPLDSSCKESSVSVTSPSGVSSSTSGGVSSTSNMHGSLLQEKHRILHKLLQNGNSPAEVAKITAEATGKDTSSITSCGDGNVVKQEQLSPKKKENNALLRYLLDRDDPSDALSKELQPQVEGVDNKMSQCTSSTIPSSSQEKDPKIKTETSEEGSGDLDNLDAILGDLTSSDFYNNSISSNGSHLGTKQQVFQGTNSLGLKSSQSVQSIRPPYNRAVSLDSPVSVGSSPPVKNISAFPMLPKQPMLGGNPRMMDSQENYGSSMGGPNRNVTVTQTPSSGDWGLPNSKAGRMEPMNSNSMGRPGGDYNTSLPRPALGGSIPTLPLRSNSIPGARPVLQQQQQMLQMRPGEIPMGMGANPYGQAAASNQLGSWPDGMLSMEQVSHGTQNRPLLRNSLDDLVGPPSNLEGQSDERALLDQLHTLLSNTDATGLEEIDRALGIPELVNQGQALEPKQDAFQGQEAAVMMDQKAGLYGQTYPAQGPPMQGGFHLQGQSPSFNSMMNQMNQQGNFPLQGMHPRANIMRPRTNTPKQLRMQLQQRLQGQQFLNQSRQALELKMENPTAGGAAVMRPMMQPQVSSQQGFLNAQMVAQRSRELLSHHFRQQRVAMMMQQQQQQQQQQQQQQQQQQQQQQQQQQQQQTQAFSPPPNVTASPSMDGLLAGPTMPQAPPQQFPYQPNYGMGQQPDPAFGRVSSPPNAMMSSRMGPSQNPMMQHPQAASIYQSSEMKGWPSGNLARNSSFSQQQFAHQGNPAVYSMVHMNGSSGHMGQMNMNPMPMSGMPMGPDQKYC

With `O=[N+]([O-])c1nn(-c2ccc3c(c2)OCCO3)[n+]([O-])c1Nc1ccc(Cl)cc1` the IC50 [1] was > 43.8 µM (not active), the IC50 [2] was > 43.8 µM (not active) and the EC50 [3] was 0.131 µM (active). For the same compound, the EC50 [4] was > 60 µM (not active).

For `COc1ccccc1/C=C/C(=O)Nc1cccc(C(C)=O)c1`, the EC50 [5] was > 50 µM (active).

For `CCn1c(=O)cc(SCC(=O)N2CCCCC2)c2ccccc21`, the EC50 [6] was > 79.4 µM (inactive), the EC50 [7] was > 79.4 µM (not active) and the EC50 [8] was > 79.4 µM (not active). The IC50 [9] was > 80 µM (inactive).

For `COc1ccc(OC)c(S(=O)(=O)Nc2cccc3ccccc23)c1`, the IC50 [10] was > 100 µM (not active) and the IC50 [11] was > 100 µM (inactive).

For `Cc1ccccc1CSc1nc(O)c2c[nH]nc2n1`, the IC50 (Aminopeptidase N) was 65.2 µM (active).

With `O=C(O)COc1ccc(Br)cc1CP(=O)(c1ccccc1)c1ccccc1` the IC50 (Aminopeptidase N) was 49.3 µM (active).

For `Cc1ccc(N=C(S)NCc2ccc(Cl)cc2)c(C)c1`, the IC50 [1] was > 43.8 µM (not active) and the IC50 [2] was 17.1 µM (not active).

With `O=C(CSc1nnc(NC(=O)c2ccccc2C(=O)O)s1)Nc1ccccc1Cl` the IC50 [12] was 14 µM (active) and the IC50 [13] was 9.42 µM (active).

In the case of `c1cc(Cn2ccnc2)ccn1`, the IC50 [10] is reported as > 100 µM (not active) and the IC50 [11] is reported as > 100 µM (inactive).

With `CC1=CC(C)(C)Nc2ccc(OC(=O)C(Cc3ccccc3)N3C(=O)c4ccccc4C3=O)cc21` (centres undefined) the CC50 [14] was > 50 µM (active), the EC50 [15] was > 260 µM (inactive) and the IC50 [9] was > 80 µM (inactive).

With `CC1=NC(=O)C(N=Nc2cccc(C(=O)O)c2)N1c1ccccc1` (centres undefined) the EC50 [16] was 0.67 µM (active), the EC50 (HT-1080) was > 50 µM (not active) and the IC50 [12] was 4.74 µM (active). For the same compound, the IC50 [13] was 6.48 µM (active) and the AC50 [17] was 8.62 µM (active).

For `O=C(N/N=C/c1cc(Cl)ccc1O)c1ccncc1`, the IC50 (Aminopeptidase N) was 22.3 µM (active), the EC50 (cells [18]) was 18.1 µM (active) and the EC50 (cells [19]) was > 350 µM (not active). The IC50 (Nonstructural protein 1) was 5.05 µM (active) and the AC50 [17] was 8.98 µM (active).

With `Cc1[nH]c2ccccc2c1/C=N/Nc1nc(Nc2ccccc2)nc(N2CCOCC2)n1` the CC50 [14] was 22.6 µM (active), the CC50 [20] was 24.1 µM (active) and the IC50 [21] was 0.482 µM (active). For the same compound, the IC50 [9] was 66.7 µM (inactive) and the CC50 (Vero) was 3.33 µM (active).

With `COc1ccc(OC)c(S(=O)(=O)Nc2ccc3ncccc3c2)c1` the IC50 [10] was > 100 µM (not active) and the IC50 [11] was > 100 µM (inactive).
